# What was measured:
# COVID-19 virus = experiment: Inhibition of cytopathic effect caused by COVID-19 virus in VeroE6 cells; assay type: cell-based; conditions: for inhibition of the cytopathic effect caused by the COVID-19 virus (in words): Example 2, VeroE6 cells
# [1] = system: lipopolysaccharide-induced intestinal barrier dysfunction in mice; experiment: Intestinal permeability (serum FITC-glucan) in lipopolysaccharide-induced intestinal barrier dysfunction in mice; assay type: in vivo, mouse; conditions: 100 mg/kg intragastrically, 30 days, model 35.06, blank 9.40
# From the text: Lipopolysaccharides could cause impaired intestinal function in animals. The protective effect of lysozyme and lysozyme combinations against lipopolysaccharide-induced intestinal barrier dysfunction in mice were studied in the present experiment.
# Test drugs: lysozyme, monoammonium glycyrrhizinate, and dipotassium glycyrrhizinate.
# Test animals: clean-grade male C57BL/6 mice, weighing 20 to 25 g.
# Animal grouping and administration: The animals were randomly divided into a blank group, a model group, a lysozyme group (100 mg/kg), lysozyme+monoammonium glycyrrhizinate group A (100 mg/kg+2 mg/kg), lysozyme+monoammonium glycyrrhizinate group B (100 mg/kg+10 mg/kg), lysozyme+monoammonium glycyrrhizinate group C (100 mg/kg+20 mg/kg), and a lysozyme+dipotassium glycyrrhizinate group (100 mg/kg+2 mg/kg), with eight animals in each group. […]
# Determination of intestinal permeability: The animals of each group were administered intragastrically with 600 mg/kg of FITC-glucan (dissolved in a phosphate buffer), and after 4 hours, blood was taken from eyeballs. The content of the FITC-glucan in the serum was measured by means of fluorescence spectrometry (with an excitation wavelength of 480 nm and an emission wavelength of 520 nm), and the results were shown in Table 5.
# Claudin-1 protein = experiment: Claudin-1 mRNA expression in jejunum tissue of lipopolysaccharide-treated mice (quantitative PCR); assay type: in vivo, mouse; conditions: 100 mg/kg, model 0.73, blank 1.07
# Experimental: (§1) Animal grouping and administration: The animals were randomly divided into a blank group, a model group, a lysozyme group (100 mg/kg), lysozyme+monoammonium glycyrrhizinate group A (100 mg/kg+2 mg/kg), lysozyme+monoammonium glycyrrhizinate group B (100 mg/kg+10 mg/kg), lysozyme+monoammonium glycyrrhizinate group C (100 mg/kg+20 mg/kg), and a lysozyme+dipotassium glycyrrhizinate group (100 mg/kg+2 mg/kg), with eight animals in each group. Each drug group was administered intragastrically by each dose of drugs every day, while the blank group and the model group were administered with normal saline. The administration was performed for 30 consecutive days.
# (§2) Model establishment: After administration, the animals of each group except the blank group were intraperitoneally injected with 15 mg/kg of lipopolysaccharides, and the blank group was injected with normal saline. The animals were fasted for 12 hours after injection.
# (§3) Determination of expression of tight junction proteins in intestinal tissue: After the animals were sacrificed, jejunum tissue samples were taken for RNA extraction, the relative expression levels of occludin protein and Claudin-1 protein in the tissues were detected by quantitative PCR and the results were shown in Table 6.
# [2] = system: guinea pigs which had inhaled smoke; experiment: Airway resistance and lung function of guinea pigs which had inhaled smoke; assay type: in vivo, guinea pig
# Experimental: The smoke-induced model was a classic animal model for chronic obstructive pulmonary disease. After inhaling smoke for a long period of time, animals could suffer from increased mucus secretion, airway obstruction, lung function decline, etc. The effect of the lysozyme on airway obstruction was evaluated by means of the model establishment method in the present experiment.
# Lysozyme, monoammonium glycyrrhizinate, and monopotassium glycyrrhizinate.
# Male Hartley guinea pigs, weighing 400 to 500 g, were randomly divided into a blank group, a model group, a lysozyme oral administration group (200 mg/kg), a lysozyme inhalation group (2 mg/kg), lysozyme+monoammonium glycyrrhizinate inhalation group (2 mg/kg+0.1 mg/kg), lysozyme+monopotassium glycyrrhizinate oral administration group I (200 mg/kg+20 mg/kg), and lysozyme+monopotassium glycyrrhizinate oral administration group II (200 mg/kg+40 mg/kg), with eight animals in each group.
# The animals in each group except the blank group were exposed to cigarette smoke by using a smoke exposure system for oro-nasal inhalation only, such that the animals inhaled smoke of five cigarettes within 40 minutes per day, for 5 exposure days per week, for 12 consecutive weeks.
# The lysozyme and monoammonium glycyrrhizinate used for inhalation administration were respectively crushed into powders with a particle size of less than 10 μm. The lysozyme and monopotassium glycyrrhizinate used for oral administration were respectively dissolved in normal saline.
# The animals in each group except the blank group and the model group were administered once a day for 4 consecutive weeks from the 8th week after the model establishment began. The inhalation administration groups were administered by means of an oro-nasal inhalation exposure system, while the oral administration groups were administered intragastrically. Animals in the blank group and the model group were administered intragastrically with normal saline per day.
# Airway resistance measurement and 100 ms (millisecond) expiratory volume measurement were performed after administration.
# The animals were placed in a double chamber plethysmography system, and after the animals were left in a tranquil state for 10 minutes, the specific airway resistance (sRaw) was measured. The animals were anesthetized by intramuscular injection of ketamine, then a catheter was then inserted into the trachea, and the forced expiratory volume in 100 ms (FEV 100) of the animals was measured through a lung function testing system.
# occludin protein = experiment: Occludin mRNA expression in jejunum tissue of lipopolysaccharide-treated mice (quantitative PCR); assay type: in vivo, mouse; conditions: 100 mg/kg, model 0.54, blank 1.04
# Experimental: as §1, §2, §3
# [3] = inhalation, 2 mg/kg once a day for 4 weeks
Molecule,"Inhibition rate (%) (COVID-19 virus; 1000 μg/ml, VeroE6 cells, 100 TCID50, 4 days)","Inhibition rate (%) (COVID-19 virus; 2000 μg/ml, VeroE6 cells, 100 TCID50, 4 days)",inhibition of the cytopathic effect caused by the COVID-19 virus (in words) (COVID-19 virus),Content of FITC-glucan [1],Relative expression quantity of Claudin-1 mRNA (Claudin-1 protein),"100 ms expiratory volume [2, 3]","Airway resistance (cmH2O · s) [2, 3]","100 ms expiratory volume ([2]; oral administration, 200 mg/kg once a day for 4 weeks, model 4.18, blank 11.86)","Airway resistance (cmH2O · s) ([2]; oral administration, 200 mg/kg once a day for 4 weeks, model 4.72, blank 1.43)",Relative expression quantity of Occludin mRNA (occludin protein),"Inhibition rate (%) (COVID-19 virus; 350 μg/ml, Example 3)"
"CC1(C)[C@@H](O[C@H]2O[C@H](C(=O)O)[C@@H](O)[C@H](O)[C@H]2O[C@@H]2O[C@H](C(=O)O)[C@@H](O)[C@H](O)[C@H]2O)CC[C@]2(C)[C@H]3C(=O)C=C4[C@@H]5C[C@@](C)(C(=O)O)CC[C@]5(C)CC[C@@]4(C)[C@]3(C)CC[C@@H]12.N [Monoammonium glycyrrhizinate, monoammonium glycyrrhizinate]",23.35 ± 5.43%,29.42 ± 7.16%,relatively weak inhibition effect,–,–,–,–,–,–,–,–
lysozyme,–,–,significantly inhibited,27.53 ± 3.21 µg/mL,0.79 ± 0.16,7.68 ± 1.36 mL,3.10 ± 0.14 cmH2O · s,5.79 ± 2.03 mL,3.79 ± 0.30 cmH2O · s,0.69 ± 0.07,6.67 ± 1.56%

# Reference: patent US20220305092A1, “MEDICAMENT AND FOOD FOR PREVENTING OR TREATING NOVEL CORONAVIRUS PNEUMONIA COVID-19 AND USE THEREOF” (GUANGZHOU CENTURY CLINICAL RESEARCH CO., LTD, priority 2020, published 2022)
